Results on 17 compounds are retold here after US11427581B2, “JAK inhibitor and use thereof” (ZHUHAI UNITED LABORATORIES CO., LTD., priority 2018, dated 2022).

The target in one data set is JAK1 (h) (Homo sapiens (Human), UniProt P23458). The data set can be described thus: In vitro activity assay of JAK1 kinase (radiometric 33P-ATP, Eurofins). Type of data set: biochemical. The conditions noted are these: recombinant human JAK1.
In another data set the target is JAK2 (h) (Homo sapiens (Human), UniProt O60674). Briefly: In vitro activity assay of JAK2 kinase (radiometric 33P-ATP, Eurofins). It is filed as biochemical. Conditions: recombinant human JAK2.
In another data set the target is JAK3 (h) (Homo sapiens (Human), UniProt P52333). Briefly: In vitro activity assay of JAK3 kinase (radiometric 33P-ATP, Eurofins). It is filed as biochemical. Conditions: recombinant human JAK3. Here is the method: (§1) Recombinant human-derived JAK1, JAK2, JAK3, Tyk2 protease, main instruments and reagents were provided by Eurofins in the UK
(§2) JAK2, JAK3 and TYK2 dilution: 20 mM MOPS, 1 mM EDTA, 0.01% Brij-35.5% glycerol, 0.1% β-mercaptoethanol. 1 mg/mL BSA; JAK1 dilution: 20 mM TRIS, 0.2 mM EDTA, 0.1% β-mercaptoethanol, 0.01% Brij-35.5% glycerol. All compounds were prepared as 100% DMSO solutions, and the concentration of the compound reached 50 times the final measured concentration. The test compound was diluted with a 3-fold concentration gradient, the final concentration was 10 μM to 0.001 μM in total 9 concentrations, and the content of DMSO in the detection reaction was 2%. The working stock solution of the compound was added to the wells as the first component of the reaction, and then the remaining components were added according to the protocol detailed below.
JAK3 (h) was incubated with 8 mM MOPS pH 7.0, 0.2 mM EDTA, 500 μM […], 10 mM magnesium acetate and [γ-^33P]-ATP (activity and concentration were formulated as needed). Mg/ATP mixture was added to initiate the reaction. After incubating at room temperature for 40 minutes, the reaction mixture was added with 0.5% phosphoric acid to stop the reaction. Then 10 μL the reaction solution was spotted on a P30 filter pad and washed with 0.425% phosphoric acid three times and methanol once over 4 minutes, dried, and counted scintillation.
(§3) The IC50 results were analyzed by XLFIT5 (205 formula) of IDBS Company, see Table 1 for details.

In the next data set the target is TYK2 (h) (Homo sapiens (Human), UniProt P29597). The data set can be described thus: In vitro activity assay of TYK2 kinase (radiometric 33P-ATP, Eurofins). It is filed as biochemical. Conditions: recombinant human TYK2. Here is the method: as §1, §2
TYK2 (h) was incubated with 8 mM MOPS pH 7.0, 0.2 mM EDTA, 250 μM […], 10 mM magnesium acetate and [γ-^33P]-ATP (activity and concentration were formulated as needed). Mg/ATP mixture was added to initiate the reaction. After incubating at room temperature for 40 minutes, the reaction mixture was added with 0.5% phosphoric acid to stop the reaction. Then 10 μL reaction was spotted on a P30 filter pad and washed with 0.425% phosphoric acid three times and methanol once over 4 minutes, dried, and counted scintillation.
as §3

A short description of data set [1]: Pharmacokinetic (PK) assay in rat. Type of data set: in vivo. The conditions noted are these: male SD rat; for Bioavailability: gavage vs tail vein; for Cmax: read-out: Cmax (peak concentration). Here is the method: The clear solution obtained by dissolving the test compound was injected into male mice (C57BL/6) or rats (SD) by tail vein and gavage respectively (overnight fasting, 7-8 weeks old). […] The drug concentration on blood was determined by LC-MS/MS, the related pharmacokinetic parameters were calculated by the linear logarithm trapezoid method of non atrioventricular model by WinNonlin™ Version 6.3.

The subject of data set [2] is adjuvant-induced arthritis rat model. Briefly: In vivo drug efficacy study in an adjuvant-induced arthritis model (AIA). The conditions noted are these: for average foot volume of arthritis rat: vehicle 2.8 mL.
The mark [3] stands for this setting: tail vein and gavage groups, route of the parameter and dose not given.
Where [4] appears, read: 15 mg/kg p.o. bid 14 d, end of the experiment (27th day).
Where [5] appears, read: 15 mpk p.o. bid 14 d, end of the experiment (27th day), vehicle peak about 8.5.

Read-outs that look alike come from different tables or passages of the source. A value given as a limit tells only on which side of the number the result lay.

Chain of JAK1 (h) (P23458 whole entry): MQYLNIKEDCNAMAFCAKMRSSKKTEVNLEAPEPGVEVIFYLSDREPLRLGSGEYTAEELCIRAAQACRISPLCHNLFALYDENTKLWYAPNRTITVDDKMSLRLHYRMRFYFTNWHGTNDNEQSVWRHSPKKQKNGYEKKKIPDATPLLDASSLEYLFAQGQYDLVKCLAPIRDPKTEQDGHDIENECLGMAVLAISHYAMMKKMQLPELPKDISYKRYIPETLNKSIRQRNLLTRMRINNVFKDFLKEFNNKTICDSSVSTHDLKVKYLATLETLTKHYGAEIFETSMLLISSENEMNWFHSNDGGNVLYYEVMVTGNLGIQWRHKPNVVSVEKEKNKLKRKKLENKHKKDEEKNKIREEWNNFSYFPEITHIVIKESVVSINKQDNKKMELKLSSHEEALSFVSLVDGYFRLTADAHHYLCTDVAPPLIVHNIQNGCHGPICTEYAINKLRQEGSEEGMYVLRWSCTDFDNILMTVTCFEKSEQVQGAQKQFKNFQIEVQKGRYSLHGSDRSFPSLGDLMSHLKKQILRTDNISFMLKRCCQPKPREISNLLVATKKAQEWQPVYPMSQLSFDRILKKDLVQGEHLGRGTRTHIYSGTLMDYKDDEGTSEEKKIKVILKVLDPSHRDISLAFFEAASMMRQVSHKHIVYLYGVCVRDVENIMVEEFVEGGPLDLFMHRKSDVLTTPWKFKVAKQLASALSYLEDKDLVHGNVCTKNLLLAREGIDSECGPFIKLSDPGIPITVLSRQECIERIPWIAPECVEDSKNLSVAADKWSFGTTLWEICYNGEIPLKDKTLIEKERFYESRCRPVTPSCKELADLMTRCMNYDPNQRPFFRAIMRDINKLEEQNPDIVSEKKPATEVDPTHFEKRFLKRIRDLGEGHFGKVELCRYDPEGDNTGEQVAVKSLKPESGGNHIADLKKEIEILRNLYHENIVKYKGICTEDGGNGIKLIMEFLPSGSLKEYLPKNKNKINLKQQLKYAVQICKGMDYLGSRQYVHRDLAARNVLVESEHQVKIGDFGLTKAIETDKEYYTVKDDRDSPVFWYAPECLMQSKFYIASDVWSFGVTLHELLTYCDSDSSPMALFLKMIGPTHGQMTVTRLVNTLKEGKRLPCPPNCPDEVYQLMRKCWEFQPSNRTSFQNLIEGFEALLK
Chain of JAK3 (h) (P52333 whole entry): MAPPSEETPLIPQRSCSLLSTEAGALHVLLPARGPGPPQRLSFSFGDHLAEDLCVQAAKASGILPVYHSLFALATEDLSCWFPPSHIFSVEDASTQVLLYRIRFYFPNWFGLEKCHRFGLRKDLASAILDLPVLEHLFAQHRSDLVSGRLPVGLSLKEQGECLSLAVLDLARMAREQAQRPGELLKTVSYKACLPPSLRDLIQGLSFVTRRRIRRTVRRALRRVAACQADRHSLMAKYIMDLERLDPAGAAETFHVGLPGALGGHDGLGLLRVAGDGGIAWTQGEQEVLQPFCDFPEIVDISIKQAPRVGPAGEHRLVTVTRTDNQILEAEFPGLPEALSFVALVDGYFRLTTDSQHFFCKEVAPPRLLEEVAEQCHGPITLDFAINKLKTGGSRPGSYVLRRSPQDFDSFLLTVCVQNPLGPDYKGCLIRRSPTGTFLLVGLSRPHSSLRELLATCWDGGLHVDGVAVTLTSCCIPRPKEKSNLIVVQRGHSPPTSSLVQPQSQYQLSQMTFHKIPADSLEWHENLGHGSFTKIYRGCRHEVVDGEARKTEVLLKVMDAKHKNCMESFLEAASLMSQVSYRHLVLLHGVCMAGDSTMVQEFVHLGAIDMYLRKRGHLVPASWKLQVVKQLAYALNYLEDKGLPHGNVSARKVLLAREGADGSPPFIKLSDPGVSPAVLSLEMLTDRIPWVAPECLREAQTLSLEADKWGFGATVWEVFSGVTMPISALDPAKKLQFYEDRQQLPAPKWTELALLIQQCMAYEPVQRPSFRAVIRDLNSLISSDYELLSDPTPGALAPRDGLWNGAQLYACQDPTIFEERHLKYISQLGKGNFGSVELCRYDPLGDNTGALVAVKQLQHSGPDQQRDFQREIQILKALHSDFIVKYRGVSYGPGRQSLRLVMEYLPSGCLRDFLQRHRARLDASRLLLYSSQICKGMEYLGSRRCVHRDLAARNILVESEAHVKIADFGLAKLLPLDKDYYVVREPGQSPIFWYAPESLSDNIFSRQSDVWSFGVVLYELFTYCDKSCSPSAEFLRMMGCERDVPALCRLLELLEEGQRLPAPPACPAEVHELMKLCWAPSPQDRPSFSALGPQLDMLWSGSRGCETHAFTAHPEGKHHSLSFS
Chain of JAK2 (h) (O60674 whole entry): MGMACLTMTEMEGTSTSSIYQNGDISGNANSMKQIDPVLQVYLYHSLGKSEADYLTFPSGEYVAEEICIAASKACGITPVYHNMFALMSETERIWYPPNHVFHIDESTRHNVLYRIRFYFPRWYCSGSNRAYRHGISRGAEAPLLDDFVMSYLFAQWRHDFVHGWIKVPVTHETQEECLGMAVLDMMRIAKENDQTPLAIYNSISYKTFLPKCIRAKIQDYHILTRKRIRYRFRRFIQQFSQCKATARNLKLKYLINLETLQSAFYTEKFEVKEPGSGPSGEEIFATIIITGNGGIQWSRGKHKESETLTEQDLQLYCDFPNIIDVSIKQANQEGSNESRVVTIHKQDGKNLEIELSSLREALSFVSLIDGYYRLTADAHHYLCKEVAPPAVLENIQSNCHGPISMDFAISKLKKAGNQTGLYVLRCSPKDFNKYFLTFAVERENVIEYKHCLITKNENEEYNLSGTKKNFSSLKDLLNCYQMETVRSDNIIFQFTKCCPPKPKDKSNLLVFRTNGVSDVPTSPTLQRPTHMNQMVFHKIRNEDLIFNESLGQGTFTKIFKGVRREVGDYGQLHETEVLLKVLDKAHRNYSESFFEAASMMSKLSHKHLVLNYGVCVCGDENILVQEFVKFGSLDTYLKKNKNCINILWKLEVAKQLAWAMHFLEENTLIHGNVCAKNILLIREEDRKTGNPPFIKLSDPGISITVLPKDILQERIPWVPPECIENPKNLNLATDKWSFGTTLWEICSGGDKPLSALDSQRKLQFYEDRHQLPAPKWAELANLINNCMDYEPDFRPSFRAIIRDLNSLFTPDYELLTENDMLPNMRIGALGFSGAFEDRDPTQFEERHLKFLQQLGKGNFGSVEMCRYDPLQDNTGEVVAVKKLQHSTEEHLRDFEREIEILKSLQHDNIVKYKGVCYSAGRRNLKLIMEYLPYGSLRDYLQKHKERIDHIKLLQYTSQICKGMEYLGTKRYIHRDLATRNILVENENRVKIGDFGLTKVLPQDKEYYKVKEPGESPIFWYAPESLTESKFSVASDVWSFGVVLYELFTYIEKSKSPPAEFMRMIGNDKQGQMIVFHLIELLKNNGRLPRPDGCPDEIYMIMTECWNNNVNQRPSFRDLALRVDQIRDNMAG
Chain of TYK2 (h) (P29597 whole entry): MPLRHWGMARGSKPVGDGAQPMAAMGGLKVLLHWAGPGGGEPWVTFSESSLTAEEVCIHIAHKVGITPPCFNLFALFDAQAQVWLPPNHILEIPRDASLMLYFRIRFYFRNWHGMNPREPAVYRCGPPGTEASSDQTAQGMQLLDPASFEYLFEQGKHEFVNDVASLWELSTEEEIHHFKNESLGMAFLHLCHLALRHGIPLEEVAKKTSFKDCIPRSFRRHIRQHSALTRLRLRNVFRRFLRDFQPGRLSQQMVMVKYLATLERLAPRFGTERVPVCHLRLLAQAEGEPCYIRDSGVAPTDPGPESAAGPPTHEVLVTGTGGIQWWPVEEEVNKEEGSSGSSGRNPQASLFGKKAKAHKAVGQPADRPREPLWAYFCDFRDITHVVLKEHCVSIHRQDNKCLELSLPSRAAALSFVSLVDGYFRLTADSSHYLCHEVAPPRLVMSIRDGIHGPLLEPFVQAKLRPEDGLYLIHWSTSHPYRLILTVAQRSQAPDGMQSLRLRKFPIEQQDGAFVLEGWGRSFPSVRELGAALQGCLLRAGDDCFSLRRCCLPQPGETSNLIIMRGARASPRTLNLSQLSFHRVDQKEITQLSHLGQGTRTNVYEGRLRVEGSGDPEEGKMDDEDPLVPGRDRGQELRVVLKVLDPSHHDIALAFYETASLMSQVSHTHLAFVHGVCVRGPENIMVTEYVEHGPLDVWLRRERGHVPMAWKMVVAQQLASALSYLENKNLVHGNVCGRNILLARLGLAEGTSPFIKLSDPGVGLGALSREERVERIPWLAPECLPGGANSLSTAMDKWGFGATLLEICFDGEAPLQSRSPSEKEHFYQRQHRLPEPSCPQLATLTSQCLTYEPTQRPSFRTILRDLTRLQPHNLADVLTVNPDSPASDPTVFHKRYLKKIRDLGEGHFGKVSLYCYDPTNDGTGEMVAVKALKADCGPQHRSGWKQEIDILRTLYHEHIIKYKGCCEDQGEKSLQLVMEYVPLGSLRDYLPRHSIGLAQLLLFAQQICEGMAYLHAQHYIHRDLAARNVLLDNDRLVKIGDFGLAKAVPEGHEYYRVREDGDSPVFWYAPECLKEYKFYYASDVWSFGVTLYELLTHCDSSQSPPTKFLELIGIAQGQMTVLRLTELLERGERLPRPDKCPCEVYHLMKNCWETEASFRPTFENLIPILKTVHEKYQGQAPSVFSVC

As for `O=C(Nc1nc2cccc(C3CCC(NC(=O)[C@@H]4CC4(F)F)CC3)n2n1)C1CC1` (single isomer, unassigned) [Compound 8-1], the half-inhibitory concentration (IC50) – broadly, the midpoint of a concentration-inhibition curve – on JAK1 (h) is 111 nM; on JAK2 (h), 861 nM; on JAK3 (h), greater than 10000 nM; on TYK2 (h), 633 nM.

As to `O=C(Nc1nc2cccc(C3=CC[C@@H](NC(=O)[C@@H]4CC4(F)F)CC3)n2n1)C1CC1` [Compound 3-1], the IC50 on JAK2 (h) amounted to 141 nM; on JAK3 (h), 5520 nM; at TYK2 (h) it was 78 nM. This compound registered a Bioavailability in data set [1] of 30.0%. Also, in data set [1] (setting [3]), the AUC0-inf turned out to be 19.967 µM·h. The “T1/2 (half-life)” value in data set [1] (setting [3]) is 3.11 h. In addition, in data set [1] (setting [3]), the Cmax stood at 3.8 µM.

For `O=C(Nc1nc2cccc(C3=CC[C@@H](NC(=O)[C@H]4CC4(F)F)CC3)n2n1)C1CC1` [Compound 3-2], the results for the IC50 on JAK1 (h) and on TYK2 (h) were 163 nM and 1370 nM, respectively.

Take `O=C(Nc1nc2cccc(C3=CCN(C(=O)C4(F)CC4)C3)n2n1)C1CC1` [Compound 6-2]: the half-maximal inhibitory concentration (IC50) is 531 nM on JAK1 (h), 1120 nM on JAK2 (h), greater than 10000 nM at JAK3 (h) and 2870 nM at TYK2 (h).

Take `O=C(Nc1nc2cccc(C3CCC(NC(=O)[C@H]4CC4(F)F)CC3)n2n1)C1CC1` (single isomer, unassigned) [Compound 8-2]: the IC50 at JAK1 (h) is 2 nM; at JAK3 (h), 957 nM; at TYK2 (h), 24 nM. Also, the entries for the “inhibition rate relative to the vehicle control group (foot volume curve AUC)” value in data set [2] (5 mg/kg p.o. bid 14 d) and in data set [2] (15 mg/kg p.o. bid 14 d) were 38.0% and 44.5%, respectively. Also, the “average foot volume of arthritis rat” value in data set [2] (5 mg/kg p.o. bid 14 d, end of the experiment (27th day)) is recorded as 1.4 mL; in data set [2] (setting [4]) it was 1.1 mL. Moreover, the “clinical score of arthritis rats” value worked out at 2.7 in data set [2] (5 mpk p.o. bid 14 d, end of the experiment (27th day), vehicle peak about 8.5) and 1.0 in data set [2] (setting [5]). In addition, the “body weight of arthritis rats” value in data set [2] (dose groups 5 and 15 mg/kg p.o. bid, weight decreased from the 15th to the 17th day) is given as “began to recover slowly on the 19th day”.

With `O=C(Nc1nc2nccc(C3CCC(NC(=O)C4CC4(F)F)CC3)c2s1)C1CC1` (centres unmarked) [Compound 10-9], the half-maximal inhibitory concentration (IC50) on JAK1 (h) is 2290 nM; on JAK2 (h), greater than 10000 nM; at JAK3 (h) it was greater than 10000 nM; on TYK2 (h) it was 245 nM.

For `O=C(Nc1nc2cccc(C3=CC[C@H](NC(=O)[C@H]4CC4(F)F)CC3)n2n1)C1CC1` [Compound 3-4], the IC50 on JAK1 (h) was 17 nM; at JAK2 (h), 126 nM; at JAK3 (h), 2550 nM; at TYK2 (h) it was 71 nM.

In the case of `O=C(Nc1nc2cccc(C3=CCN(C(=O)C4CC4(F)F)C3)n2n1)C1CC1` (centres unmarked) [Compound 6-1], the figures for the half-maximal inhibitory concentration (IC50) at JAK1 (h), at JAK3 (h) and at TYK2 (h) were 70 nM, greater than 10000 nM and 244 nM, respectively.

Regarding `O=C(Nc1nc2cccc(C3CCC(NC(=O)C4(F)CC4)CC3)n2n1)C1CC1` (centres unmarked) [Compound 4-3], the IC50 was 31 nM at JAK1 (h), 360 nM on JAK2 (h), 4380 nM at JAK3 (h) and 127 nM on TYK2 (h). Besides, the Bioavailability in data set [1] (blood, po, read-out: Bioavailability) was 89.8%. The AUC0-inf in data set [1] (blood, po, tail vein and gavage groups, route of the parameter and dose not given, read-out: AUC0-inf) was found to be 85.8 µM·h. For the same compound, in data set [1] (blood, po, tail vein and gavage groups, route of the parameter and dose not given), the Cmax came out at 24.8 µM. For the same compound, the half-life in data set [1] (blood, po, tail vein and gavage groups, route of the parameter and dose not given, read-out: T1/2 (half-life) (converted)) is 2.86 h. Moreover, in data set [2] (setting [4]), the “average foot volume of arthritis rat” value is 1.5 mL. Besides, in data set [2] (setting [5]), the “clinical score of arthritis rats” value was 2.6. Besides, the inhibition (usually the share of the control response that was lost under treatment) at 15 mg/kg in data set [2] (Rattus norvegicus, po, 336 h, 15 mg/kg p.o. bid 14 d, read-out: inhibition rate relative to the vehicle control group (foot volume curve AUC)) was found to be 32.3%.

For the compound `O=C(Nc1nc2cccc(C3CCC(NC(=O)[C@H]4CC4(F)F)CC3)n2n1)C1CC1` (single isomer, unassigned) [Compound 8-4], the IC50 on JAK1 (h) is 442 nM; on JAK2 (h), 3750 nM; on JAK3 (h) it was greater than 10000 nM; on TYK2 (h), 2440 nM.

Turning to `O=C(Nc1nc2cccc(C3=CCC(NC(=O)C4CC4)CC3)n2n1)C1CC1` (centres unmarked) [Compound 1-12], the IC50 on JAK1 (h) was 149 nM; on JAK2 (h) it was 1420 nM; on JAK3 (h) it was greater than 10000 nM; on TYK2 (h), 497 nM.

In the case of `O=C(Nc1nc2cccc(C3CCC(NC(=O)C4CC4(F)F)CC3)n2n1)C1CC1` (centres unmarked) [Compound 4-2], the half-maximal inhibitory concentration (IC50) at JAK3 (h) was 2050 nM. Also, the IC50 at TYK2 (h) came to 10 nM. The same compound came in with a Bioavailability in data set [1] of 58.6%. Also, in data set [1] (setting [3]), the AUC0-inf is 11.021 µM·h, the “T1/2 (half-life)” value worked out at 2.22 h and the Cmax was found to be 13.4 µM.

With `C[C@@H]1C[C@H]2[C@@H]3CCC4=CC(=O)C=C[C@]4(C)[C@@]3(F)[C@@H](O)C[C@]2(C)[C@@]1(O)C(=O)CO` [Dexamethasone, reference compound], in data set [2] (0.3 mg/kg p.o. qd 14 d), the “inhibition rate relative to the vehicle control group (foot volume curve AUC)” value is given as 44.9%. Besides, the “average foot volume of arthritis rat” value in data set [2] (0.3 mg/kg p.o. qd 14 d, end of the experiment) was determined as 1.1 mL. Besides, the “clinical score of arthritis rats” value in data set [2] (0.3 mg/kg p.o. qd 14 d, from the 23rd day until the end of the experiment) is “about 2.0”.

As to `O=C(Nc1nc2cccc(C3=CC[C@H](NC(=O)[C@@H]4CC4(F)F)CC3)n2n1)C1CC1` [Compound 3-3], the values for the IC50 at JAK1 (h) and at TYK2 (h) were 166 nM and 942 nM, respectively.

As for `O=C(Nc1nc2cccc(C3CCC(NC(=O)[C@@H]4CC4(F)F)CC3)n2n1)C1CC1` (single isomer, unassigned) [Compound 8-3], the IC50 on JAK1 (h) was 494 nM; on JAK2 (h) it was 5770 nM; at JAK3 (h) it was greater than 10000 nM; at TYK2 (h), 3440 nM.

As for `O=C(Nc1nc2cccc(C3=CCN(C(=O)C4CC4)CC3)n2n1)C1CC1` [Compound 5-4], the concentration for half-maximal inhibition (IC50) at JAK1 (h) was 90 nM; at JAK2 (h), 422 nM; on JAK3 (h) it was greater than 10000 nM; on TYK2 (h), 178 nM.

In the case of `O=C(Nc1nc2cccc(C3=CCC(NC(=O)C4CC4(F)F)CC3)n2n1)C1CC1` (centres unmarked) [Compound 1-7], the IC50 was determined as 239 nM at JAK2 (h), 3110 nM on JAK3 (h) and 73 nM on TYK2 (h). The compound further returned a Bioavailability in data set [1] of 75.2%. Moreover, the AUC0-inf in data set [1] (setting [3]) was found to be 18.033 µM·h. Moreover, the “T1/2 (half-life)” value in data set [1] (setting [3]) came to 2.07 h. Besides, in data set [1] (setting [3]), the Cmax was 23.9 µM.
